Literature values as cited in US11724007B2, “Operating room coating applicator and method” (Ethicon, Inc., priority 2018, dated 2023).

System: S. aureus
Conditions: measured in a suitable growth medium; described by Bhargava, H. et al, American Journal of Infection Control, June 1996

SMILES: Oc1cc(Cl)ccc1Oc1ccc(Cl)cc1Cl [triclosan, 2,4,4′-trichloro-2′-hydroxydiphenyl ether]
- minimum inhibitory concentration (MIC) against S. aureus: 0.01 ppm
